Data set [1] is described as follows: Metabolic stability in BALB/c mouse hepatic microsomes assessed per mg of microsomal protein at 1 umol/L preincubated for 5 mins by LC-MS/MS method. Format: ADME, Liver, Microsome. The conditions noted are these: 1 µM.
For data set [2], the system named is Mus musculus. Description: Toxicity in human HCT116 cells xenografted in BALB/C nude mouse assessed as mouse mortality at 50 mg/kg, iv administered three times on days 1, 5, and 9. More on the design: dose 50 mg/kg, route intravenous. It counts as organism-based, HCT-116. The following applies: in vivo. (In general: A xenograft is tissue or cells of one species grown in another, often human tumour cells in immunodeficient mice.)

Data set [3] concerns Mus musculus. In words: Toxicity in human HCT116 cells xenografted in BALB/C nude mouse assessed as mouse mortality at 25 mg/kg, iv administered three times on days 1, 5, and 9. It counts as organism-based, HCT-116. The following applies: in vivo. More on the design: dose 25 mg/kg, route intravenous.
A further data set deals with A549. Description: Cytotoxicity against human A549 cells assessed as inhibition of cell proliferation after 96 hrs. It counts as functional, cell-based. The conditions noted are these: A549, 96 h.
In data set [4] the test system is HCT-116. Description: Cytotoxicity against human HCT116 cells assessed as inhibition of cell proliferation after 96 hrs. It counts as functional, cell-based. The conditions noted are these: HCT-116, 96 h.
Data set [5] concerns HCT-116. In words: Antitumor activity against human HCT116 cells xenografted in BALB/C nude mouse assessed as tumor growth inhibition rate at 50 mg/kg, iv administered three times on days 1, 5, and 9. It counts as functional. The conditions noted are these: read-out: TGI.
The test system of data set [6] is HCT-116. In words: Antitumor activity against human HCT116 cells xenografted in BALB/C nude mouse assessed as tumor growth inhibition rate at 25 mg/kg, iv administered three times on days 1, 5, and 9. It counts as functional. The conditions noted are these: read-out: TGI.
The test system of data set [7] is Mus musculus. In words: Toxicity in human HCT116 cells xenografted in BALB/C nude mouse assessed as weight loss at 50 mg/kg, iv administered three times on days 1, 5, and 9. Format: organism-based, HCT-116. More on the design: dose 50 mg/kg, route intravenous. The conditions noted are these: in vivo.
The subject of a further data set is HT-29. Description: Cytotoxicity against human HT-29 cells assessed as inhibition of cell proliferation after 96 hrs. The following applies: HT-29, 96 h. It counts as functional, cell-based.
Data set [8] deals with Mus musculus. Description: Toxicity in human HCT116 cells xenografted in BALB/C nude mouse assessed as weight loss at 25 mg/kg, iv administered three times on days 1, 5, and 9. Format: organism-based, HCT-116. More on the design: dose 25 mg/kg, route intravenous. The conditions noted are these: in vivo.
The test system of data set [9] is Mus musculus. Description: Toxicity in human HCT116 cells xenografted in BALB/C nude mouse assessed as mouse mortality at 20 mg/kg, iv administered three times on days 1, 5, and 9. Format: organism-based, HCT-116. Further details: dose 20 mg/kg, route intravenous. The conditions noted are these: in vivo.
Data set [10] relates to Mus musculus. In words: Toxicity in human HCT116 cells xenografted in BALB/C nude mouse assessed as weight loss at 20 mg/kg, iv administered three times on days 1, 5, and 9. More on the design: dose 20 mg/kg, route intravenous. It counts as organism-based, HCT-116. The following applies: in vivo.
Data set [11] concerns HCT-116. Description: Antitumor activity against human HCT116 cells xenografted in BALB/C nude mouse assessed as tumor growth inhibition rate at 10 mg/kg, iv administered three times on days 1, 5, and 9. Format: functional. The conditions noted are these: read-out: TGI.
The subject of data set [12] is Mus musculus. Description: Toxicity in human HCT116 cells xenografted in BALB/C nude mouse assessed as mouse mortality at 10 mg/kg, iv administered three times on days 1, 5, and 9. Format: organism-based, HCT-116. Further details: dose 10 mg/kg, route intravenous. The conditions noted are these: in vivo.
The subject of data set [13] is HCT-116. Description: Antitumor activity against human HCT116 cells xenografted in BALB/C nude mouse assessed as tumor growth inhibition rate at 20 mg/kg, iv administered three times on days 1, 5, and 9. The following applies: read-out: TGI. Format: functional.
The test system of data set [14] is Mus musculus. In words: Toxicity in human HCT116 cells xenografted in BALB/C nude mouse assessed as weight loss at 10 mg/kg, iv administered three times on days 1, 5, and 9. Format: organism-based, HCT-116. More on the design: dose 10 mg/kg, route intravenous. The following applies: in vivo.
The subject of data set [15] is Mus musculus. In words: Toxicity in human HCT116 cells xenografted in BALB/C nude mouse assessed as weight loss at 40 mg/kg, iv administered three times on days 1, 5, and 9. It counts as organism-based, HCT-116. Further details: dose 40 mg/kg, route intravenous. The following applies: in vivo.
Data set [16] has as its system HCT-116. Description: Antitumor activity against human HCT116 cells xenografted in BALB/C nude mouse assessed as tumor growth inhibition rate at 40 mg/kg, iv administered three times on days 1, 5, and 9. It counts as functional. The conditions noted are these: read-out: TGI.
The target of the next data set is Tubulin (Sus scrofa, UniProt P02554+P02550). Description: Inhibition of tubulin polymerization assessed as reduction in tubulin assembly after 5 mins using pig microtubule protein by spectrophotometry. It counts as protein assay.
Data set [17] relates to Mus musculus. Description: Toxicity in human HCT116 cells xenografted in BALB/C nude mouse assessed as mouse mortality at 40 mg/kg, iv administered three times on days 1, 5, and 9. It counts as organism-based, HCT-116. Further details: dose 40 mg/kg, route intravenous. The following applies: in vivo.

The term IC50 denotes the midpoint of a concentration-inhibition curve.

`COc1c(Cl)c2c(c(OC)c1OC)-c1ccc(OC)c(=O)cc1[C@@H](NC(=S)N1CCOCC1)CC2` returned an Intrinsic clearance in data set [1] of 0.061 mL/min/mg. In addition, the Activity entry with Mus musculus [2], in the data set with Mus musculus [3], in the data set on Mus musculus [7] and in the data set with Mus musculus [8] was “Non-toxic” throughout. Besides, the IC50 in the data set on A549 came out at 44.9 nM; in the data set with HCT-116 [4], 9.1 nM; in the data set with HT-29, 7.2 nM. Further, the inhibition in vivo at 50 mg/kg with HCT-116 [5] was 52.7%. Moreover, in the data set on HCT-116 [6], the inhibition in vivo at 25 mg/kg is 31.3%.

On to `COc1c(Cl)c2c(c(OC)c1OC)-c1ccc(OC)c(=O)cc1[C@@H](NC(=O)N1CCCCC1)CC2`, for which the Intrinsic clearance in data set [1] turned out to be 0.043 mL/min/mg. In addition, the IC50 with A549 came out at 26.6 nM; in the data set on HCT-116 [4], 42.4 nM; in the data set with HT-29 it was 42.6 nM.

`CCN(CC)C(=O)N[C@H]1CCc2c(Cl)c(OC)c(OC)c(OC)c2-c2ccc(OC)c(=O)cc21` displayed an Intrinsic clearance in [1] of 0.021 mL/min/mg. The IC50 was 48.3 nM in the data set on A549, 44.3 nM in the data set on HCT-116 [4] and 43.9 nM in the data set with HT-29.

For `COc1c(Cl)c2c(c(OC)c1OC)-c1ccc(OC)c(=O)cc1[C@@H](NC(=S)Nc1ccc(N(C)C)cc1)CC2`, the Activity result in the data set on Mus musculus [9], in the data set on Mus musculus [10], in the data set on Mus musculus [12] and with Mus musculus [14] was “Non-toxic” each time. Besides, the Intrinsic clearance in data set [1] was determined as 0.152 mL/min/mg. Besides, in the data set on HCT-116 [11], the inhibition in vivo at 10 mg/kg is 32.6%. The IC50 with A549 amounted to 1.8 nM; in the data set on HCT-116 [4], 1.1 nM; in the data set with HT-29, 0.3 nM. For the same compound, the inhibition in vivo at 20 mg/kg with HCT-116 [13] is 52.5%.

For `COc1c(Cl)c2c(c(OC)c1OC)-c1ccc(OC)c(=O)cc1[C@@H](NC(=S)Nc1nc[nH]n1)CC2`, the Intrinsic clearance in data set [1] amounted to 0.088 mL/min/mg. Further, the IC50 with A549 amounted to 0.5 nM; in the data set with HCT-116 [4] it was 0.3 nM; in the data set with HT-29, 0.2 nM.

Consider `COc1c(Cl)c2c(c(OC)c1OC)-c1ccc(OC)c(=O)cc1[C@@H](NC(=S)Nc1ccn(C)n1)CC2`, for which the Intrinsic clearance in [1] turned out to be 0.037 mL/min/mg. Further, the IC50 with A549 is 5.8 nM; with HCT-116 [4], 1.3 nM; in the data set on HT-29, 0.7 nM.

Compound `CCN(CC)C(=S)N[C@H]1CCc2c(Cl)c(OC)c(OC)c(OC)c2-c2ccc(OC)c(=O)cc21` came in with an Intrinsic clearance in data set [1] of 0.541 mL/min/mg. The Activity entry with Mus musculus [2], in the data set on Mus musculus [3], in the data set on Mus musculus [7] and in the data set on Mus musculus [8] was “Non-toxic” each time. For the same compound, the values for the IC50 in the data set with A549, in the data set on HCT-116 [4] and in the data set on HT-29 were 10.1 nM, 6.9 nM and 6.1 nM, respectively. The inhibition in vivo at 50 mg/kg in the data set on HCT-116 [5] was 54.6%. Also, the inhibition in vivo at 25 mg/kg with HCT-116 [6] is 29.5%.

For the compound `CCNC(=S)N[C@H]1CCc2c(Cl)c(OC)c(OC)c(OC)c2-c2ccc(OC)c(=O)cc21`, the Activity result in the data set on Mus musculus [9], in the data set on Mus musculus [15], in the data set with Mus musculus [10] and in the data set with Mus musculus [17] was “Non-toxic” each time. The Intrinsic clearance in data set [1] was found to be 0.124 mL/min/mg. In addition, the IC50 was determined as 37.9 nM with A549, 7.9 nM in the data set on HCT-116 [4], 8.6 nM with HT-29 and 2.36 µM on Tubulin. Moreover, the inhibition in vivo at 40 mg/kg with HCT-116 [16] was 62.6%. In addition, the inhibition in vivo at 20 mg/kg with HCT-116 [13] worked out at 44.4%.

`COc1c(Cl)c2c(c(OC)c1OC)-c1ccc(OC)c(=O)cc1[C@@H](NC(=S)Nc1cc(C)[nH]n1)CC2` displayed an Intrinsic clearance in data set [1] of 0.004 mL/min/mg. In addition, the IC50 with A549 was 2 nM; in the data set on HCT-116 [4], 0.3 nM; in the data set with HT-29 it was 0.3 nM; on Tubulin, 1.11 µM.

For the compound `COc1c(Cl)c2c(c(OC)c1OC)-c1ccc(OC)c(=O)cc1[C@@H](NC(=S)Nc1cc[nH]n1)CC2`, in [1], the Intrinsic clearance is 0.188 mL/min/mg. The IC50 with A549 was determined as 7.8 nM; in the data set on HCT-116 [4] it was 0.9 nM; in the data set with HT-29, 0.3 nM.
